Tests used:
Type in all cases: in vivo
Details in all cases: 250 g/ha, evaluated after 13 days
[1] = test system: Echinochloa crus-galli (ECHCG); assay: Pre-emergence herbicidal glasshouse test
Description: (§1) Seeds of a variety of test species are sown in standard soil in pots Amaranthus palmeri (AMAPA), Amaranthus retoflexus (AMARE), Echinochloa crus-galli (ECHCG), Ipomoea hederacea (IPOHE), Setaria faberi (SETFA). After cultivation for one day (pre-emergence) or after 8 days cultivation (post-emergence) under controlled conditions in a glasshouse (at 24/16 °C, day/night; 14 hours light; 65% humidity), the plants are sprayed with an aqueous spray solution derived from the formulation of the technical active ingredient in acetone/water (50:50) solution containing 0.5% Tween 20 (polyoxyethelyene sorbitan monolaurate, CAS RN 9005-64-5). Compounds are applied at 250 g/ha unless otherwise stated. The test plants are then grown in a glasshouse under controlled conditions in a glasshouse (at 24/16 °C, day/night; 14 hours light; 65% humidity) and watered twice daily. After 13 days for pre and post-emergence, the test is evaluated for the percentage damage caused to the plant. The biological activities are shown in the following table on a five-point scale (5=81-100%; 4=61-80%; 3=41-60%; 2=21-40%; 1=0-20%).

Setaria faberi (SETFA) [2] = assay: Pre-emergence herbicidal glasshouse test
Description: as §1

[3] = test system: Ipomoea hederacea (IPOHE); assay: Pre-emergence herbicidal glasshouse test
Description: as §1

[4] = test system: Amaranthus retoflexus (AMARE); assay: Pre-emergence herbicidal glasshouse test
Description: as §1

[5] = test system: Amaranthus palmeri (AMAPA); assay: Pre-emergence herbicidal glasshouse test
Description: as §1

[6] = test system: Echinochloa crus-galli (ECHCG); assay: Post-emergence herbicidal glasshouse test
Description: as §1

Setaria faberi (SETFA) [7] = assay: Post-emergence herbicidal glasshouse test
Description: as §1

[8] = test system: Ipomoea hederacea (IPOHE); assay: Post-emergence herbicidal glasshouse test
Description: as §1

[9] = test system: Amaranthus retoflexus (AMARE); assay: Post-emergence herbicidal glasshouse test
Description: as §1

[10] = test system: Amaranthus palmeri (AMAPA); assay: Post-emergence herbicidal glasshouse test
Description: as §1

Row | SMILES | percentage damage caused to the plant (five-point scale), ECHCG [1] | percentage damage caused to the plant (five-point scale), SETFA (Setaria faberi (SETFA) [2]) | percentage damage caused to the plant (five-point scale), IPOHE [3] | percentage damage caused to the plant (five-point scale), AMARE [4] | percentage damage caused to the plant (five-point scale), AMAPA [5] | percentage damage caused to the plant (five-point scale), ECHCG [6] | percentage damage caused to the plant (five-point scale), SETFA (Setaria faberi (SETFA) [7]) | percentage damage caused to the plant (five-point scale), IPOHE [8] | percentage damage caused to the plant (five-point scale), AMARE [9] | percentage damage caused to the plant (five-point scale), AMAPA [10]
1 | C=CCCn1nc(C(F)F)cc1Cc1ncc(Cl)cn1 [Compound 1.021] | 2 (21-40%) | 3 (41-60%) | 1 (0-20%) | 5 (81-100%) | 5 (81-100%) | 1 (0-20%) | 1 (0-20%) | 1 (0-20%) | 3 (41-60%) | 2 (21-40%)
2 | N#CC1(Cn2nc(C(F)(F)F)cc2Cc2ncc(Cl)cn2)CC1 [Compound 1.022] | 3 (41-60%) | 4 (61-80%) | 5 (81-100%) | 5 (81-100%) | 4 (61-80%) | 1 (0-20%) | 1 (0-20%) | 4 (61-80%) | 4 (61-80%) | 4 (61-80%)
3 | CS(=O)(=O)CCn1nc(C(F)F)cc1Cc1ncc(Cl)cn1 [Compound 1.023] | 1 (0-20%) | 1 (0-20%) | 2 (21-40%) | 1 (0-20%) | 1 (0-20%) | 1 (0-20%) | 1 (0-20%) | 3 (41-60%) | 2 (21-40%) | 2 (21-40%)
4 | FC(F)c1cc(Cc2ncc(Cl)cn2)n(CCBr)n1 [Compound 1.025] | 2 (21-40%) | 1 (0-20%) | 1 (0-20%) | 4 (61-80%) | 4 (61-80%) | 1 (0-20%) | 1 (0-20%) | 1 (0-20%) | 1 (0-20%) | 1 (0-20%)
5 | C=CCn1nc(C(F)F)cc1Cc1ncc(Cl)cn1 [Compound 1.026] | 1 (0-20%) | 1 (0-20%) | 1 (0-20%) | 1 (0-20%) | 1 (0-20%) | 1 (0-20%) | 1 (0-20%) | 1 (0-20%) | 1 (0-20%) | 1 (0-20%)
6 | N#CC1(Cn2nc(C(F)F)cc2Cc2ccc(Cl)cc2)CC1 [Compound 1.027] | 1 (0-20%) | 2 (21-40%) | 2 (21-40%) | 1 (0-20%) | 1 (0-20%) | 1 (0-20%) | 1 (0-20%) | 1 (0-20%) | 1 (0-20%) | 1 (0-20%)
7 | FC(F)(F)c1cc(Cc2ncc(Cl)cn2)n(C2CCCC2)n1 [Compound 1.028] | 2 (21-40%) | 5 (81-100%) | 1 (0-20%) | 5 (81-100%) | 5 (81-100%) | 2 (21-40%) | 2 (21-40%) | 3 (41-60%) | 4 (61-80%) | 2 (21-40%)
8 | CC(C)(C#N)CCCn1nc(C(F)(F)F)cc1Cc1ncc(Cl)cn1 [Compound 1.029] | 3 (41-60%) | 3 (41-60%) | 5 (81-100%) | 5 (81-100%) | 4 (61-80%) | 3 (41-60%) | 2 (21-40%) | 3 (41-60%) | 4 (61-80%) | 3 (41-60%)
9 | CCSCCn1nc(C(F)F)cc1Cc1ncc(Cl)cn1 [Compound 1.030] | 1 (0-20%) | 1 (0-20%) | 1 (0-20%) | 1 (0-20%) | 1 (0-20%) | 2 (21-40%) | 4 (61-80%) | 5 (81-100%) | 5 (81-100%) | 5 (81-100%)
10 | FC(F)CCn1nc(C(F)(F)Cl)cc1Cc1ncc(Cl)cn1 [Compound 1.031] | 5 (81-100%) | 5 (81-100%) | 5 (81-100%) | 5 (81-100%) | 5 (81-100%) | 3 (41-60%) | 4 (61-80%) | 4 (61-80%) | 4 (61-80%) | 4 (61-80%)
11 | FC(F)(Cl)c1cc(Cc2ncc(Cl)cn2)n(CCC2CC2)n1 [Compound 1.032] | 5 (81-100%) | 5 (81-100%) | 5 (81-100%) | 5 (81-100%) | 5 (81-100%) | 4 (61-80%) | 5 (81-100%) | 4 (61-80%) | 5 (81-100%) | 5 (81-100%)
12 | C=Cn1nc(C(F)F)cc1Cc1ncc(Cl)cn1 [Compound 1.037] | 1 (0-20%) | 1 (0-20%) | 3 (41-60%) | 5 (81-100%) | 5 (81-100%) | 2 (21-40%) | 2 (21-40%) | 2 (21-40%) | 4 (61-80%) | 3 (41-60%)
13 | FC(F)c1cc(Cc2ncc(Cl)cn2)n(CCn2ccc(C(F)(F)F)n2)n1 [Compound 1.038] | 2 (21-40%) | 2 (21-40%) | 1 (0-20%) | 1 (0-20%) | 2 (21-40%) | 1 (0-20%) | 1 (0-20%) | 1 (0-20%) | 1 (0-20%) | 1 (0-20%)

Reference: patent US20260365634A1, “HERBICIDAL PYRAZOLE COMPOUNDS” (SYNGENTA CROP PROTECTION AG, priority 2022, published 2026)
